Results published in US7547679B2, “Ether linked macrolides useful for the treatment of microbial infections” (GlaxoSmithKline istrazivacki center Zagreb d.o.o, priority 2005, dated 2009).
Structures can show the parent of a compound that is named as a salt.

Experiments:
Type in all cases: cell-based
[1] = tested on: erythromycin resistant strain of Streptococcus pyogenes; assay: MIC, microtiter broth serial dilution test, erythromycin resistant S. pyogenes; conditions: read-out: MIC against erythromycin resistant strain of Streptococcus pyogenes
sensitive S. pneumoniae = assay: MIC, microtiter broth serial dilution test, sensitive S. pneumoniae; conditions: Streptococcus pneumoniae; sensitive strain; read-out: MIC against sensitive S. pneumoniae
M. catarrhalis = assay: MIC, microtiter broth serial dilution test, M. catarrhalis; conditions: Moraxella catarrhalis; read-out: MIC against M. catarrhalis
E. faecalis = assay: MIC, microtiter broth serial dilution test, E. faecalis; conditions: Enterococcus faecalis; read-out: MIC against E. faecalis
sensitive S. pyogenes = assay: MIC, microtiter broth serial dilution test, sensitive S. pyogenes; conditions: Streptococcus pyogenes; sensitive strain; read-out: MIC against sensitive S. pyogenes
[2] = tested on: erythromycin resistant strain of Streptococcus pneumoniae; assay: MIC, microtiter broth serial dilution test, erythromycin resistant S. pneumoniae; conditions: read-out: MIC against erythromycin resistant strain of Streptococcus pneumoniae

| Compound | MIC [1] | MIC (sensitive S. pneumoniae) | MIC (M. catarrhalis) | MIC (E. faecalis) | MIC (sensitive S. pyogenes) | MIC [2] |
| --- | --- | --- | --- | --- | --- | --- |
| CC[C@H]1OC(=O)[C@H](C)[C@@H](O[C@H]2C[C@@](C)(OC)[C@@H](OCCNCCOCCOCCc3ccc4c(c3)c(=O)c(C(=O)O)cn4CC)[C@H](C)O2)[C@H](C)[C@@H](O[C@@H]2O[C@H](C)C[C@H](N(C)C)[C@H]2O)[C@](C)(OC)C[C@@H](C)C(=O)[C@H](C)[C@@H](O)[C@]1(C)O [Example 18, 4″-O-{2-({2-[(2-{[2-(3-Carboxy-1-ethyl-4-oxo-1,4-dihydro-6-quinolinyl)ethyl]oxy}ethyl)oxy]ethyl}amino)ethyl}-6-O-methyl-erythromycin A formate] | ≤ 0.25 µg/mL | ≤ 0.125 µg/mL | ≤ 1 µg/mL | ≤ 1 µg/mL | ≤ 0.125 µg/mL | ≤ 0.25 µg/mL |
| CC[C@H]1OC(=O)[C@H](C)[C@@H](O[C@H]2C[C@@](C)(OC)[C@@H](OCCN(C)CCOCCOCCc3ccc4c(c3)c(=O)c(C(=O)O)cn4CC)[C@H](C)O2)[C@H](C)[C@@H](O[C@@H]2O[C@H](C)C[C@H](N(C)C)[C@H]2O)[C@](C)(OC)C[C@@H](C)C(=O)[C@H](C)[C@@H](O)[C@]1(C)O [Example 19, 4″-O-{2-({2-[(2-{[2-(3-Carboxy-1-ethyl-4-oxo-1,4-dihydro-6-quinolinyl)ethyl]oxy}ethyl)oxy]ethyl}methylamino)ethyl}-6-O-methyl-erythromycin A] | ≤ 0.25 µg/mL | ≤ 0.125 µg/mL | ≤ 1 µg/mL | ≤ 1 µg/mL | ≤ 0.125 µg/mL | ≤ 0.25 µg/mL |
| CC[C@H]1OC(=O)[C@H](C)[C@@H](OC2C[C@@](C)(OC)[C@@H](OCCNCCOCCNc3cc4c(=O)c(C(=O)O)cn(C5CC5)c4cc3Cl)[C@H](C)O2)[C@H](C)[C@@H](O[C@@H]2O[C@H](C)C[C@H](N(C)C)[C@H]2O)[C@](C)(O)C[C@@H](C)CN(C)[C@H](C)[C@@H]2OC(=O)O[C@]12C (stereo partly shown) [Example 3, 4″-O-(2-{2-[2-(3-Carboxy-7-chloro-1-cyclopropyl-4-oxo-1,4-dihydro-quinolin-6-ylamino)-ethoxy]-ethylamino}-ethyl)-azithromycin 11,12-cyclic carbonate] | ≤ 0.25 µg/mL | ≤ 0.125 µg/mL | – | ≤ 1 µg/mL | ≤ 0.125 µg/mL | ≤ 0.25 µg/mL |
| CC[C@H]1OC(=O)[C@H](C)[C@@H](O[C@H]2C[C@@](C)(OC)[C@@H](OCCCOCCOCCCc3ccc4c(c3)c(=O)c(C(=O)O)cn4CC)[C@H](C)O2)[C@H](C)[C@@H](O[C@@H]2O[C@H](C)C[C@H](N(C)C)[C@H]2O)[C@](C)(O)C[C@@H](C)CN(C)[C@H](C)[C@@H](OC)[C@]1(C)O [Example 8, 4″-O-(3-{2-[3-(3-Carboxy-1-ethyl-4-oxo-1,4-dihydro-quinolin-6-yl)-propoxy]-ethoxy}-propyl)-11-O-methyl azithromycin] | ≤ 0.25 µg/mL | – | ≤ 1 µg/mL | – | – | ≤ 0.25 µg/mL |
| CC[C@H]1OC(=O)[C@H](C)[C@@H](O[C@H]2C[C@@](C)(OC)[C@@H](OCCCOCCOCCCc3ccc4c(c3)c(=O)c(C(=O)O)cn4N(C)C)[C@H](C)O2)[C@H](C)[C@@H](O[C@@H]2O[C@H](C)C[C@H](N(C)C)[C@H]2O)[C@](C)(O)C[C@@H](C)CN(C)[C@H](C)[C@@H](O)[C@]1(C)O [Example 15, 4″-O-(3-{2-[3-(3-Carboxy-1-dimethylamino-4-oxo-1,4-dihydro-quinolin-6-yl)-propoxy]-ethoxy}-propyl)-azithromycin] | ≤ 0.25 µg/mL | ≤ 0.125 µg/mL | ≤ 1 µg/mL | ≤ 1 µg/mL | ≤ 0.125 µg/mL | ≤ 0.25 µg/mL |
| CC[C@H]1OC(=O)[C@H](C)[C@@H](O[C@H]2C[C@@](C)(OC)[C@@H](OCCNCCOCCNc3cc4c(cc3F)c(=O)c(C(=O)O)cn4C3CC3)[C@H](C)O2)[C@H](C)[C@@H](O[C@@H]2O[C@H](C)C[C@H](N(C)C)[C@H]2O)[C@](C)(O)C[C@@H](C)CN(C)[C@H](C)[C@H]2OC(=O)O[C@@]21C [Example 16, 4″-O-(2-{2-[2-(3-Carboxy-6-fluoro-1-cyclopropyl-4-oxo-1,4-dihydro-quinolin-7-ylamino)-ethoxy]-ethylamino}-ethyl)-azithromycin 11,12-cyclic carbonate] | ≤ 0.25 µg/mL | ≤ 0.125 µg/mL | – | ≤ 1 µg/mL | ≤ 0.125 µg/mL | ≤ 0.25 µg/mL |
| CC[C@H]1OC(=O)[C@H](C)[C@@H](O[C@H]2C[C@@](C)(OC)[C@@H](OCCCOCCCOCCCc3ccc4c(c3)c(=O)c(C(=O)O)cn4C3CC3)[C@H](C)O2)[C@H](C)[C@@H](O[C@@H]2O[C@H](C)C[C@H](N(C)C)[C@H]2O)[C@](C)(O)C[C@@H](C)CN(C)[C@H](C)[C@@H](O)[C@]1(C)O [Example 13, 4″-O-(3-{3-[3-(3-Carboxy-1-cyclopropyl-4-oxo-1,4-dihydro-quinolin-6-yl)-propoxy]-propoxy}-propyl)-azithromycin] | ≤ 0.25 µg/mL | ≤ 0.125 µg/mL | ≤ 1 µg/mL | ≤ 1 µg/mL | ≤ 0.125 µg/mL | ≤ 0.25 µg/mL |
| CC[C@H]1OC(=O)[C@H](C)[C@@H](OC2C[C@@](C)(OC)[C@@H](OCCNCCOCCOCCNc3cc4c(=O)c(C(=O)O)cn(C5CC5)c4cc3Cl)[C@H](C)O2)[C@H](C)[C@@H](O[C@@H]2O[C@H](C)C[C@H](N(C)C)[C@H]2O)[C@](C)(O)C[C@@H](C)CN(C)[C@H](C)[C@@H]2OC(=O)O[C@]12C (stereo partly shown) [Example 2, 4″-O-[2-(2-{2-[2-(3-Carboxy-7-chloro-1-cyclopropyl-4-oxo-1,4-dihydro-quinolin-6-yl-amino)-ethoxy]-ethoxy}-ethylamino)-ethyl]-azithromycin 11,12-cyclic carbonate] | ≤ 0.25 µg/mL | ≤ 0.125 µg/mL | – | ≤ 1 µg/mL | ≤ 0.125 µg/mL | ≤ 0.25 µg/mL |
| CC[C@H]1OC(=O)[C@H](C)[C@@H](O[C@H]2C[C@@](C)(OC)[C@@H](OCCCNCCOCCCc3ccc4c(c3)c(=O)c(C(=O)O)cn4CC)[C@H](C)O2)[C@H](C)[C@@H](O[C@@H]2O[C@H](C)C[C@H](N(C)C)[C@H]2O)[C@](C)(O)C[C@@H](C)CN(C)[C@H](C)[C@@H](O)[C@]1(C)O [Example 5, 4″-O-(3-{2-[3-(3-Carboxy-1-ethyl-4-oxo-1,4-dihydro-quinolin-6-yl)-propoxy]-ethylamnio}-propyl)-azithromycin] | ≤ 0.25 µg/mL | ≤ 0.125 µg/mL | ≤ 1 µg/mL | ≤ 1 µg/mL | ≤ 0.125 µg/mL | ≤ 0.25 µg/mL |
| CC[C@H]1OC(=O)[C@H](C)[C@@H](O[C@H]2C[C@@](C)(OC)[C@@H](OCCCNC(=O)CCOCCCc3ccc4c(c3)c(=O)c(C(=O)O)cn4N(C)C)[C@H](C)O2)[C@H](C)[C@@H](O[C@@H]2O[C@H](C)C[C@H](N(C)C)[C@H]2O)[C@](C)(OC)C[C@H](C)C(=O)[C@H](C)[C@@H](O)[C@]1(C)O [Example 9, 4″-O-(3-{3-[3-(3-Carboxy-1-dimethylamino-4-oxo-1,4-dihydro-quinolin-6-yl)-propoxy]-propionylamino}-propyl)-6-O-methyl-erythromycin A] | ≤ 0.25 µg/mL | ≤ 0.125 µg/mL | ≤ 1 µg/mL | ≤ 1 µg/mL | ≤ 0.125 µg/mL | – |
| CC[C@H]1OC(=O)[C@H](C)[C@@H](O[C@H]2C[C@@](C)(OC)[C@@H](OCCCNC(=O)CCOCCOCCNc3cc4c(=O)c(C(=O)O)cn(C5CC5)c4cc3Cl)[C@H](C)O2)[C@H](C)[C@@H](O[C@@H]2O[C@H](C)C[C@H](N(C)C)[C@H]2O)[C@](C)(O)C[C@@H](C)CN(C)[C@H](C)[C@@H](O)[C@]1(C)O [Example 11, 4″-O-[3-(3-{2-[2-(3-carboxy-7-chloro-1-cyclopropyl-4-oxo-1,4-dihydro-quinolin-6-ylamino)-ethoxy]-ethoxy}-propionylamino)-propyl]-azithromycin] | ≤ 0.25 µg/mL | ≤ 0.125 µg/mL | – | ≤ 1 µg/mL | ≤ 0.125 µg/mL | ≤ 0.25 µg/mL |
